Patent US20190117574A1, “SURFACE-MODIFIED MICROSPHERE COMPOSITION, APPLICATION OF THE SAME, AND METHOD OF PREPARING THE SAME” (INSTITUTE OF NUCLEAR ENERGY RESEARCH, ATOMIC ENERGY …, priority 2017, published 2019)

Test system: mice with FCA-induced arthritis
Test: Treatment of mice with FCA-induced arthritis: ankle joint diameter
Type: in vivo, mice (C57BL/6)
Settings: 10 mg/kg/ml, subdermal injection around right tibiotarsal joint on day 21 after FCA, FIG. 8
Method: Animal Model Created with Arthritis Induced by Freund's Complete Adjuvant (FCA) 24 male mice (C57BL/6, purchased from the National Laboratory Animal Center, Taipei, Taiwan) weighing 20-25 g (8 weeks old) are provided. The mice are each given a subdermal injection of 0.1 ml of FCA at the tibiotarsal joint of the right hind leg and 0.05 ml of FCA on the subplantar side of the right hind paw to induce the development of arthritis. Afterward, thermal images are taken of the mice with a thermal imaging camera on day 0, day 3, and day 14 after injected with FCA, respectively. The diameters of ankle joints of left and right hind legs of the mice are measured with a vernier caliper are surveyed and recorded for 2 or 3 days. The mice with FCA-induced arthritis are administered with a neutrophil elastase 680 FAST probe through trail veins on day 21 and observed with IVIS (non-invasion in vivo imaging system) to confirm whether neutrophil elastase is produced at the location where FCA is injected.
The animal model created with FCA-induced arthritis is described above. 24 mice which conform to the animal model created with FCA-induced arthritis are provided. […]
Upon completion of the subdermal injection of the reagents into the four groups of mice, the diameters of left and right ankle joints and body weight of the mice are measured with a vernier caliper and recorded for 2 or 3 days.

O=C(O)Cc1ccccc1Nc1c(Cl)cccc1Cl [free diclofenac sodium, diclofenac sodium]
reduction of swelling of ankles (ankle joint diameter) compared with saline: more effective than saline in reducing the swelling of the mice's ankles
